From patent publication US20050234046A1 (Kalypsys, Inc., priority 2004, published 2005)

Columns and labels:
Assay in all cases: Transient transfection (transactivation) assay in CV-1 cells, GAL4-PPAR chimera, luciferase reporter
Assay type in all cases: cell-based
PPAR gamma = target: T1, PPAR gamma (Homo sapiens, UniProt P37231)
T1 construct: expressed in transfected cells; host or cells: CV-1 cells
T1 sequence (P37231 238-503 limits assumed): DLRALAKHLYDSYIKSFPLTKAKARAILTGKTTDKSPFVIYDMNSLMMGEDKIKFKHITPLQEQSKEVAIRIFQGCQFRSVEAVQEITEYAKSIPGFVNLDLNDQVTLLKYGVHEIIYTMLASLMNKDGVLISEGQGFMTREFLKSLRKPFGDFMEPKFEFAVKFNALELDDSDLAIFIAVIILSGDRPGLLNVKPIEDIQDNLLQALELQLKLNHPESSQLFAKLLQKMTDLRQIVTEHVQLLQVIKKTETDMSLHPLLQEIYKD

PPAR delta = target: T2, PPAR delta (Homo sapiens, UniProt Q03181)
T2 construct: expressed in transfected cells; host or cells: CV-1 cells
T2 sequence (Q03181 211-439 limits assumed): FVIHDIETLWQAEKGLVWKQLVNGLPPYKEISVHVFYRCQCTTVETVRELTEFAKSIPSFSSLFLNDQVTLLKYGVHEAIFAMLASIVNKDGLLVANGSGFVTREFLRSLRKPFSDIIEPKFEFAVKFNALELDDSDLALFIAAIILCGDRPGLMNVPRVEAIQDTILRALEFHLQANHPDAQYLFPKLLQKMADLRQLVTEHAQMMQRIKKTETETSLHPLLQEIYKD
Source text: Compounds may be screened for functional potency in transient transfection assays in CV-1 cells or other cell types for their ability to activate the PPAR subtypes (transactivation assay). A previously established chimeric receptor system was utilized to allow comparison of the relative transcriptional activity of the receptor subtypes on the same synthetic response element and to prevent endogenous receptor activation from complicating the interpretation of results. […] The ligand binding domains for murine and human PPAR-alpha, PPAR-gamma, and PPAR-delta are each fused to the yeast transcription factor GAL4 DNA binding domain. CV-1 cells were transiently transfected with expression vectors for the respective PPAR chimera along with a reporter construct containing four or five copies of the GAL4 DNA binding site driving expression of luciferase. After 8-16 h, the cells are replated into multi-well assay plates and the media is exchanged to phenol-red free DME medium supplemented with 5% delipidated calf serum. 4 hours after replating, cells were treated with either compounds or 1% DMSO for 20-24 hours. Luciferase activity was then assayed with Britelite (Perkin Elmer) following the manufacturer's protocol and measured with either the Perkin Elmer Viewlux or Molecular Devices Acquest Xsee, for example, Kliewer, S. A., et. al. Cell 1995, 83, 813-819). Rosiglitazone is used as a positive control in the hPPAR-γ assay. Wy-14643 and GW7647 is used as a positive control in the hPPAR-α assay. GW501516 is used as the positive control in the hPPAR-δ assay.

PPAR alpha = target: T3, PPAR alpha (Homo sapiens, UniProt Q07869)
T3 construct: expressed in transfected cells; host or cells: CV-1 cells
T3 sequence (Q07869 239-466 limits assumed): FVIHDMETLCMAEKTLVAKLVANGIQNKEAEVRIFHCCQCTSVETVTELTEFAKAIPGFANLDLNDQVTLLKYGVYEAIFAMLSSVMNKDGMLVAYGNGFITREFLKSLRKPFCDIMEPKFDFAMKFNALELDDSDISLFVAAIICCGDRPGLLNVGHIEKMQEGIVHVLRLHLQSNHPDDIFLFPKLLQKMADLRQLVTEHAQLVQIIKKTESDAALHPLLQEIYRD
In short: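 GAL4 DNA-binding domain fused to PPAR ligand binding domain, co-transfected into CV-1 cells with a luciferase reporter carrying four or five GAL4 sites. Replated cells in phenol-red free DME with 5% delipidated calf serum were treated with compound or 1% DMSO for 20-24 hours; luciferase read for EC50 and efficacy.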

Row | SMILES | EC50 (PPAR gamma) | EC50 (PPAR delta) | EC50 (PPAR alpha)
1 | O=C(O)Cc1c(F)ccc(S(=O)(=O)N2CCN(c3ccc(C(F)(F)F)cn3)CC2)c1F [Example 230, {2,6-Difluoro-3-[4-(5-trifluoromethyl-pyridin-2-yl)-piperazine-1-sulfonyl]-phenyl}-acetic acid] | 5 to 100 µM | < 5 µM | 5 to 100 µM
2 | O=C(O)Cc1cccc(S(=O)(=O)N2CCN(c3ccccc3Cl)CC2)c1 [Example 140, {3-[4-(2-Chloro-phenyl)-piperazine-1-sulfonyl]-phenyl}-acetic acid] | > 100 µM | > 100 µM | > 100 µM
3 | Cc1ccc(S(=O)(=O)N2CCC(c3ccc(Cl)c(Cl)c3)CC2)cc1CC(=O)O [Example 49, {5-[4-(3,4-Dichloro-phenyl)-piperidine-1-sulfonyl]-2-methyl-phenyl)-acetic acid] | 5 to 100 µM | 5 to 100 µM | > 100 µM
4 | O=C(O)CCc1cccc(S(=O)(=O)N2CCN(c3ccc(Cl)c(Cl)c3)CC2)c1 [Example 186, 3-{3-[4-(3,4-Dichloro-phenyl)-piperazine-1-sulfonyl]-phenyl}-propionic acid] | 5 to 100 µM | < 5 µM | > 100 µM
5 | C[C@@H]1CN(c2ccc(C(F)(F)F)cn2)C[C@H](C)N1S(=O)(=O)c1cccc(CC(=O)O)c1 [Example 220, {3-[2,6-Dimethyl-4-(5-trifluoromethyl-pyridin-2-yl)-piperazine-1-sulfonyl]-phenyl}-acetic acid] | > 100 µM | < 5 µM | 5 to 100 µM
6 | Cc1ccc(CC(=O)O)cc1S(=O)(=O)N1CCN(Cc2ccc(F)cc2)CC1 [Example 154, {3-[4-(4-Fluoro-benzyl)-piperazine-1-sulfonyl]-4-methyl-phenyl}-acetic acid] | 5 to 100 µM | > 100 µM | > 100 µM
7 | O=C(O)Cc1cccc(S(=O)(=O)N2CCN(c3ccc(C(F)(F)F)cc3)CC2)c1 [Example 3, {3-[4-(4-Trifluoromethyl-phenyl)-piperazine-1-sulfonyl]-phenyl}-acetic acid] | 5 to 100 µM | < 5 µM | 5 to 100 µM
8 | COc1ccc(S(=O)(=O)N2[C@H](C)CN(c3ccc(OC(F)(F)F)cn3)C[C@@H]2C)cc1CC(=O)O [Example 206, {5-[2,6-Dimethyl-4-(5-trifluoromethoxy-pyridin-2-yl)-piperazine-1-sulfonyl]-2-methoxy-phenyl}-acetic acid] | 5 to 100 µM | < 5 µM | > 100 µM
9 | Cc1ccc(S(=O)(=O)N2CCN(c3nc(Cl)ncc3F)CC2)cc1CC(=O)O [Example 64, {5-[4-(2-Chloro-5-fluoro-pyrimidin-4-yl)-piperazine-1-sulfonyl]-2-methyl-phenyl}-acetic acid] | 5 to 100 µM | > 100 µM | > 100 µM
10 | Cc1ccc(S(=O)(=O)N2CCN(c3ccc(C(F)(F)F)nc3)CC2)cc1CC(=O)O [Example 95, {2-Methyl-5-[4-(6-trifluoromethyl-pyridin-3-yl)-piperazine-1-sulfonyl]-phenyl}-acetic acid] | > 100 µM | < 5 µM | > 100 µM
11 | Cc1cc(CC(=O)O)cc(S(=O)(=O)N2[C@H](C)CN(c3ccc(C(F)(F)F)cn3)C[C@@H]2C)c1 [Example 229, {3-[2,6-Dimethyl-4-(5-trifluoromethyl-pyridin-2-yl)-piperazine-1-sulfonyl]-5-methyl-phenyl}-acetic acid] | > 100 µM | < 5 µM | > 100 µM
12 | Cc1ccc(S(=O)(=O)N2CCN(c3ccc4occc4c3)CC2C)cc1CC(=O)O (stereo not drawn) [Example 73, [5-(4-Benzofuran-5-yl-2-methyl-piperazine-1-sulfonyl)-2-methyl-phenyl]-acetic acid] | > 100 µM | 5 to 100 µM | > 100 µM
13 | Cc1ccc(S(=O)(=O)N2C[C@@H](C)N(c3ccc(C(F)(F)F)cn3)[C@@H](C)C2)cc1CC(=O)O [Example 72, {2-Methyl-5-[3,5-dimethyl-4-(5-trifluoromethyl-pyridin-2-yl)-piperazine-1-sulfonyl]-phenyl}-acetic acid] | > 100 µM | 5 to 100 µM | > 100 µM
14 | O=C(O)Cc1cccc(S(=O)(=O)N2CCN(C(c3ccccc3)c3ccc(Cl)cc3)CC2)c1 (stereo not drawn) [Example 134, (3-{4-[(4-Chloro-phenyl)-phenyl-methyl]-piperazine-1-sulfonyl}-phenyl)-acetic, acid] | 5 to 100 µM | > 100 µM | > 100 µM
15 | Cc1ccc(S(=O)(=O)N2CCCN(c3ncc(C(F)(F)F)cc3Cl)CC2)cc1CC(=O)O [Example 9] | < 5 µM | < 5 µM | < 5 µM
16 | O=C(O)CSCc1cccc(S(=O)(=O)N2CCN(c3ccc(C(F)(F)F)cc3)CC2)c1 [Example 210, {3-[4-(4-Trifluoromethyl-phenyl)-piperazine-1-sulfonyl]-benzylsulfanyl}-acetic acid] | 5 to 100 µM | 5 to 100 µM | 5 to 100 µM
17 | Cc1ccc(N2CCN(S(=O)(=O)c3cc(CC(=O)O)ccc3C)CC2)c(C)c1 [Example 148, {3-[4-(2,4-Dimethyl-phenyl)-piperazine-1-sulfonyl]-4-methyl-phenyl}-acetic acid] | > 100 µM | > 100 µM | > 100 µM
18 | O=C(O)COCc1cccc(S(=O)(=O)N2CCN(c3ccc(C(F)(F)F)cc3)CC2)c1 [Example 211, {3-[4-(4-Trifluoromethyl-phenyl)-piperazine-1-sulfonyl]-benzyloxy}-acetic acid] | > 100 µM | > 100 µM | > 100 µM
19 | COCCNCc1cc(CC(=O)O)cc(S(=O)(=O)N2CCN(c3ccc(C(F)(F)F)cc3)CC2)c1 [Example 89, {3-[(2-Methoxy-ethylamino)-methyl]-5-[4-(4-trifluoromethyl-phenyl)-piperazine-1-sulfonyl]-phenyl}-acetic acid] | > 100 µM | > 100 µM | > 100 µM
20 | Cc1ccc(N2CCN(S(=O)(=O)c3cc(CC(=O)O)ccc3C)CC2)cc1C [Example 150, {3-[4-(3,4-Dimethyl-phenyl)-piperazine-1-sulfonyl]-4-methyl-phenyl}-acetic acid] | 5 to 100 µM | 5 to 100 µM | > 100 µM
21 | CN(C)Cc1cc(CC(=O)O)cc(S(=O)(=O)N2CCN(c3ccc(C(F)(F)F)cc3)CC2)c1 [Example 84, {3-Dimethylaminomethyl-5-[4-(4-trifluorometbyl-phenyl)-piperazine-1-sulfonyl]-phenyl}-acetic acid] | > 100 µM | > 100 µM | > 100 µM
22 | Cc1cc(CC(=O)O)cc(S(=O)(=O)N2CCN(c3ccc(C(F)(F)F)c(F)c3)C[C@@H]2C)c1 [Example 216, {3-[4-(3-Fluoro-4-trifluoromethyl-phenyl)-2-(S)-methyl-piperazine-1-sulfonyl]-5-methyl-phenyl}-acetic acid] | 5 to 100 µM | < 5 µM | 5 to 100 µM
23 | Cc1ccc(S(=O)(=O)N2CCN(c3ccc(OC(F)(F)F)cc3)C[C@@H]2C)cc1CC(=O)O [Example 214, {2-Methyl-5-[2-(S)-methyl-4-(4-trifluoromethoxy-phenyl)-piperazine-1-sulfonyl]-phenyl}-acetic acid] | 5 to 100 µM | < 5 µM | 5 to 100 µM
24 | Cc1ccc(S(=O)(=O)N2CCN(CCc3ccccc3)CC2)cc1CC(=O)O [Example 178, [2-Methyl-5-(4-phenethyl-piperazine-1-sulfonyl)-phenyl]-acetic acid] | 5 to 100 µM | 5 to 100 µM | > 100 µM
